The text below walks through data of PubChem BioAssay (NCI).

Common to all, as to assay: NCI-60 cell line screen, 48 h
Assay [1] deals with A549 NSCLC.
Assay [2] has as its system CCRF-CEM leukemia.
The test system of assay [3] is HL-60(TB) leukemia.
The test system of assay [4] is HT29 colon.
The subject of assay [5] is M14 melanoma.
Assay [6] has as its system OVCAR-4 ovarian.
Assay [7] has as its system RXF 393 renal.
In assay [8] the test system is SN12C renal.
Assay [9] relates to UACC-62 melanoma.
Assay [10] has as its system BT-549 breast.

SMILES strings stand for the structures. Several values for one entry are separate records, joined by “and”; a condition that tells them apart may be missing. Equal values may be shown once.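 Values below derive from 48-hour exposures of cells grown in 96-well plates, with endpoints linearly interpolated between the two concentrations bracketing the appropriate inhibition level. Here, GI50 denotes the concentration required for 50% inhibition of growth. TGI marks complete inhibition of growth.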 Where a SMILES comes first, the peptide text is derived from it. The star is where a group is joined. Trt = c1ccc(C(c2ccccc2)(c2ccccc2)*)cc1; Cbz = O=C(OCc1ccccc1)*

Turning to `C/C(=N\O)c1ccc2ccc3ccccc3c2c1`, the TGI is 79.8 µM in assay [1]; more than 100 µM in [2]; 66.6 µM in assay [3]; more than 100 µM in assay [4]; more than 100 µM in assay [5]; 66.5 µM in assay [6]. For the same compound, the TGI in assay [7] is more than 100 µM; in [8] it was more than 100 µM; in assay [9] it was 45.2 µM.

With `CN(C)CCNC(=O)c1cccc2c1nc(-c1ccc(F)cc1)c1ccccc12`, the TGI worked out at 13.8 µM in assay [1]; 11.9 µM in assay [2]; 10.9 µM in assay [3]; 15.1 µM in [4]; 18.7 µM in [5]; 19.1 µM in assay [6]. The TGI in assay [7] came out at 12 µM; in [8] it was 16 µM; in assay [9], 14.8 µM.

Turning to `CC(C)(C)c1cc(CCC(=O)Nc2ccc(Cl)cc2)[nH]c(=S)n1`, the TGI in assay [1], in assay [2], in assay [3], in [4], in assay [5] and in assay [6] was more than 100 µM throughout. The TGI in assay [7], in assay [8] and in assay [9] was more than 100 µM in each case.

For `COc1cccc(/C=C/C(=O)c2ccc3cc(OC)ccc3c2)c1`, the GI50 in assay [1] is 15.5 µM; in [10], 8.07 µM; in assay [3], 17.5 µM; in [5], 13.6 µM; in assay [6], 24.7 µM; in [9] it was 8.35 µM. For the same compound, the TGI in assay [1] was 49.4 µM; in assay [10], 17.7 µM; in assay [3], more than 50 µM; in [5], 41.3 µM; in assay [6] it was more than 50 µM; in [9] it was 21.9 µM.

As for `Cc1ccc(NC(=O)CCCC(=O)CC(=O)c2ccc(Br)cc2)cc1`, the TGI in [1], in [2], in [4], in assay [5], in assay [6] and in assay [7] was more than 100 µM each time. Moreover, the TGI in assay [8] and in assay [9] was more than 100 µM each time.

Turning to `CC(=O)C1CCN(c2ccccc2)C1` (stereo not given), the TGI in [1], in assay [2], in [3], in assay [4], in assay [5] and in assay [6] was more than 100 µM in each case. Also, the TGI in assay [7], in [8] and in assay [9] was more than 100 µM throughout.

Regarding `CCOC(=O)C(C)(NC(=O)c1ccc(NCc2ccc3nc(NC(=O)c4ccccc4)nc(NC(=O)c4ccccc4)c3c2)cc1)C(=O)OCC`, the TGI is 35.2 µM in assay [1]; more than 100 µM in assay [3]; 39.1 µM in [4]; 44.3 µM in [5]; 4.18 µM in assay [6]; 7.92 µM in assay [7]. Besides, the values for the TGI in assay [8] and in assay [9] were 29.8 µM and 22.1 µM, respectively.

Take `COC1C2C[C@@H](O)CCC2C(C(=O)OCCl)C[C@H]1O` (stereo not given in full): the TGI in [1], in assay [2], in assay [3], in assay [5], in assay [6] and in assay [7] was more than 100 µM throughout. For the same compound, the TGI in [8] and in assay [9] was more than 100 µM throughout.

Take `O=C(O/N=C1\CCCC\C1=C/c1ccccc1)c1ccc([N+](=O)[O-])cc1`: the TGI in assay [1], in [2], in [3], in assay [4], in [5] and in [6] was more than 100 µM throughout. Besides, the TGI in assay [7], in [8] and in assay [9] was more than 100 µM throughout.

Consider `Cn1c(CBr)nc2c1C(=O)c1nc(CBr)[nH]c(=O)c1C2=O`, for which the TGI in assay [1], in assay [2], in assay [4], in assay [5], in [7] and in assay [8] was more than 100 µM in each case. Moreover, the TGI in assay [9] was more than 100 µM.

Consider `CCCNC(=O)Nc1c([N+](=O)[O-])cc(C(F)(F)F)cc1[N+](=O)[O-]`, for which the TGI in assay [1] was more than 100 µM; in assay [2], more than 100 µM; in assay [3], 82.7 µM; in assay [4] it was more than 100 µM; in assay [5], more than 100 µM; in assay [6] it was 73.7 µM. For the same compound, the values for the TGI in assay [7] and in assay [9] were 76.1 µM and more than 100 µM, respectively.

For the compound `CC(C)(CN1C(=O)C(Cl)=C(Cl)C1=O)CN1C(=O)C(Cl)=C(Cl)C1=O`, the TGI in [1] is more than 72.7 µM; in assay [3] it was 2.84 µM; in [4], 42 µM; in assay [5], 38.2 µM; in assay [6] it was 43.4 µM; in assay [7] it was 14.4 µM. The TGI in assay [8] was found to be 29.4 µM; in assay [9], 29.5 µM.

On to `COC(=O)C(CO)NC(=O)C(CSC(c1ccccc1)(c1ccccc1)c1ccccc1)NC(=O)OCc1ccccc1` (stereo not given) (Cbz-Cys(Trt)-Ser-OMe; configuration not given here), for which the TGI was more than 48.5 µM in assay [1]; 7.63 µM in [2]; more than 43.6 µM in [3]; 33.3 µM in [4]; 44 µM in [5]; more than 50.2 µM in assay [6]. Further, the TGI in assay [7] came to 32.5 µM; in assay [8], 27.3 µM; in [9], 24.9 µM.

On to `O=S1(=O)N2CN3CN(C2)CN1C3`, for which the TGI in assay [1] was 935 µM; in assay [2] it was > 31.6 µM and 110 µM; in assay [3] it was 62.8 µM; in assay [4] it was 90.6 µM; in [5] it was 355 µM; in [6], 80.8 µM. Besides, the figures for the TGI in [8] and in [9] were 158 µM and 49.2 µM, respectively.

Consider `C[C@H]1CC[P+](Cc2ccccc2)(c2ccccc2)C1` (stereo not given in full), for which the TGI in [1], in assay [2], in assay [3], in assay [4], in [5] and in assay [6] was more than 100 µM in each case. For the same compound, the TGI in assay [7], in assay [8] and in [9] was more than 100 µM each time.
